The source of these data is patent US20170348280A1 (priority 2016, published 2017).

Data set [1] concerns ECM deposition of collagen type IV by AoSMC. Nature of the data set: ECM deposition of collagen type IV by AoSMC (immunoassay). The data set is classed as cell-based, human. The settings on record: for increased collagen IV deposition: compared to 1.25 μM; for decrease in ascorbyl palmitate dependent ECM deposition of collagen IV / reduction of ascorbic acid dependent deposition of collagen type IV to the ECM: 50 μM nifedipine. As to the method: (§1) Both cell cultures were maintained in DMEM medium (ATCC) containing antibiotics and 5% fetal bovine serum (FBS, ATCC). All cell cultures were maintained at 37° C. and 5% CO2 atmosphere. Cell viability was monitored with MTT assay.
(§2) Collagen production by human cultured cells: In the case of these experiments, DF or AoSMC, at 5th to 8th passages, were seeded on collagen type I-covered plastic plates (Becton-Dickinson, collagen I isolated from rat tail tendon) at density of 25,000/cm^2 and grown to confluence for 5-7 days. […] Tested compounds were added to cells at indicated concentrations for 72 h in DMEM supplemented with 2% FBS and cell-produced extracellular matrix was exposed by sequential treatment with 0.5% Triton X100 and 20 mM ammonium […] in phosphate buffered saline (PBS, Life Technologies) for 3 min each at room temperature. After four washes with PBS, ECM layers were treated with 1% bovine serum albumin (BSA) in PBS for one hour at room temperature and immediately used in experiments.
(§3) Collagen and beta-actin immunoassays: Immunoassays were done by sequential incubation with primary monoclonal antibodies specific to human collagen type I or IV or human beta-actin in 1% BSA/PBS for 2 hours followed by 1 hour incubation with secondary goat anti-mouse IgG antibodies labeled with horse radish peroxidase (HRP).
(§4) Differences between samples were estimated with a two-tailed Student's t-test using MedCalc software (Mariakerke, Belgium) and accepted as significant at p levels less than 0.05.

Data set [2] deals with ECM deposition of collagen type I by cultured AoSMC. Nature of the data set: ECM deposition of collagen type I by cultured AoSMC (immunoassay). As to conditions: for reduction of ascorbyl palmitate dependent deposition of collagen type 1 to the ECM / reduction of ascorbic acid dependent deposition of collagen type 1 to the ECM: 50 μM nifedipine.
The conditions of data set [3]: cited from earlier work.
Data set [4] relates to ascorbate accumulation inside human AoSMC. Nature of the data set: Intracellular ascorbic acid assay in AoSMC. In kind it is cell-based. As to the method: Cells were washed briefly three times with ice-cold PBS on ice and incubated with 300 μl of 0.1% saponin in 1% ethanol in PBS for 10 min on an orbit mixer. Samples were collected to Eppendorf tubes and centrifuged at 13,000×g for 5 min. Supernatants were used in an ascorbic acid assay (Ascorbic Acid Colorimetric Assay Kit […], BioVision) in accordance with the manufacturer's protocol. […] Differences between samples were estimated with a two-tailed Student's t-test using MedCalc software ([…], Belgium) and accepted as significant at p levels less than 0.05.

A further data set concerns smooth muscle cells. Put plainly: Cell viability / cytotoxicity (MTT assay), smooth muscle cells. The settings on record: cultured smooth muscle cells; data not shown. In kind it is cell-based, human. As to the method:
as §1

The test system of a further data set is cultured fibroblasts. Put plainly: Cell viability / cytotoxicity (MTT assay), fibroblasts. In kind it is cell-based, human. As to conditions: data not shown. As to the method: as §1
The test system of data set [5] is collagen type I ECM deposition by cultured human skin fibroblasts. Put plainly: Collagen type I ECM deposition by cultured human skin fibroblasts (immunoassay). As to conditions: channel blocker alone, without ascorbate; 72 h; FIG. 1A-1F. In kind it is cell-based. Here is the method:
as §1, §2
Collagen and beta-actin immunoassays: Immunoassays were done by sequential incubation with primary monoclonal antibodies specific to human collagen type I or IV or human beta-actin in 1% BSA/PBS for 2 hours followed by 1 hour incubation with secondary goat anti-mouse IgG antibodies labeled with horse radish peroxidase (HRP). […]

Data set [6] concerns human vascular smooth muscle cells and fibroblasts. As to conditions: cited from earlier work.
In data set [7] the test system is intracellular content of collagen type I in AoSMC. Put plainly: Intracellular content of collagen type I in AoSMC (immunoassay). In kind it is cell-based, human. As to conditions: for reduction of ascorbate-dependent intracellular collagen type 1 synthesis: 50 μM nifedipine; for reduction of ascorbate-dependent collagen type 1 synthesis: nifedipine. As to the method: as §1, §2, §3, §4

Data set [8] deals with intracellular content of collagen type I normalized to beta actin content in aortic smooth muscle cells. Put plainly: Intracellular collagen type I normalized by beta actin content in AoSMC. The data set is classed as cell-based, human. As to conditions: for reduction of intracellular content of collagen type I normalized to beta actin content compared to the control: 50 μM nifedipine. Here is the method: as §2, §3, §4

Data set [9] deals with intracellular content of beta-Actin in AoSMC. Nature of the data set: Intracellular content of beta-actin in AoSMC (immunoassay). In kind it is cell-based, human. As to conditions: for reduction of ascorbate-dependent beta-actin intracellular content compared to control: 50 μM nifedipine; for reduction of intracellular beta actin content: nifedipine. Here is the method:
as §1, §2, §3, §4

Where [10] appears, read: 100 μM ascorbic acid compared to 25 μM ascorbic acid.
The mark [11] stands for this setting: 400 μM ascorbic acid compared to 25 μM ascorbic acid.

Like-named read-outs stand apart in the source and are kept apart here.

For the compound `O=C1O[C@H]([C@@H](O)CO)C(O)=C1O` [ascorbic acid], the “increased collagen IV ECM deposition” value in data set [1] (setting [10]) came to 175%; in data set [1] (setting [11]), 166%. The “increase of collagen type 1 ECM deposition” value in [2] (setting [10]) worked out at 114%; in data set [2] (setting [11]), 176%. The excretion half-life in [3] (body stores depleted, by the onset of the first symptoms of scurvy) is 83 days. In addition, the “renal resorption threshold (plasma level)” value in data set [3] (men) was “about 1.5 mg/dL”; in [3] (women), ~1.3 mg/dL. In addition, the “half-life of excretion in the urine” value in data set [3] (plasma concentrations larger than renal resorption threshold) was “about 30 minutes”.
Regarding `CCCCCCCCCCCCCCCC(=O)OC[C@H](O)[C@H]1OC(=O)C(O)=C1O` [ascorbyl palmitate], the “increased collagen IV deposition” value is 113% in data set [1] (2.5 μM ascorbyl palmitate alone), 144% in [1] (5 μM ascorbyl palmitate alone), 138% in [1] (10 μM ascorbyl palmitate alone) and 168% in data set [1] (20 μM ascorbyl palmitate alone). Also, the “higher intracellular levels of ascorbic acid compared to the highest concentration of ascorbic acid used (400)” value in data set [4] (supplementation with 20 ascorbyl palmitate (unit not given)) is listed as 10 ×. Besides, the “levels found to be cytotoxic” value in the data set on smooth muscle cells and with cultured fibroblasts was “higher than 20 μM” each time. The “increase of collagen type 1 ECM deposition” value turned out to be 135% in data set [2] (2.5 μM ascorbyl palmitate administered individually, compared to 1.25 μM); 189% in data set [2] (5 μM ascorbyl palmitate administered individually, compared to 1.25 μM); 184% in data set [2] (10 μM ascorbyl palmitate administered individually, compared to 1.25 μM); 212% in data set [2] (20 μM ascorbyl palmitate administered individually, compared to 1.25 μM).
For `COc1cc(CNC(=O)CCCC/C=C/C(C)C)ccc1O` [capsaicin], the “inhibition of collagen type I deposition to the ECM” value in [5] was “slight, insignificant inhibition”.
Turning to `COc1ccc([C@@H]2Sc3ccccc3N(CCN(C)C)C(=O)[C@@H]2OC(C)=O)cc1` [ditiazem], in [5], the “inhibition of collagen type I deposition to the ECM” value is given as “up to 13.1%”. Besides, in data set [6], the “constitutive and platelet-derived growth factor-dependent collagen deposition in the ECM” value was “significantly decreased”.
`COC(=O)C1=C(C)NC(C)=C(C(=O)OC)C1c1ccccc1[N+](=O)[O-]` [nifedipine]: the “reduction of ascorbate-dependent intracellular collagen type 1 synthesis” value in data set [7] (25 μM ascorbic acid) amounted to 61%; in [7] (100 μM ascorbic acid), 49.1%. For the same compound, the “increase of intracellular collagen I compared to control” value in data set [7] (nifedipine with 400 μM ascorbic acid) was 122%. For the same compound, the “reduction of ascorbate-dependent collagen type 1 synthesis” value in [7] (ascorbyl palmitate at 5 (unit not given)) worked out at 20.3%; in [7] (ascorbyl palmitate at 20 (unit not given)) it was 38%. In addition, the “reduction of intracellular content of collagen type I normalized to beta actin content compared to the control” value in data set [8] (25 μM ascorbic acid) was 46%; in [8] (100 μM ascorbic acid) it was 34.4%. Besides, the “increase of collagen I (normalized to beta actin) compared to control” value in data set [8] (nifedipine, 400 μM ascorbic acid) is recorded as 23%. Besides, in data set [8] (nifedipine, ascorbyl palmitate at 5 μM and 20 μM), the “effect on collagen I content (normalized to beta actin)” value was “no significant effect”. Also, the “reduction of ascorbate-dependent beta-actin intracellular content compared to control” value in data set [9] (25 μM ascorbic acid) is on record as 29%; in data set [9] (100 μM ascorbic acid), 22.6%; in data set [9] (400 μM ascorbic acid), 5%. For the same compound, the figures for the “reduction of intracellular beta actin content” value in [9] (5 μM ascorbyl palmitate) and in [9] (20 μM ascorbyl palmitate) were 22% and 23.6%, respectively. Also, the “decrease in ascorbyl palmitate dependent ECM deposition of collagen IV” value in [1] (1.25 μM ascorbyl palmitate) was 23.5%; in [1] (2.5 μM ascorbyl palmitate) it was 22.7%; in data set [1] (5 μM ascorbyl palmitate), 22%; in data set [1] (10 μM ascorbyl palmitate) it was 13.5%; in data set [1] (20 μM ascorbyl palmitate), 31.6%. The “reduction of ascorbic acid dependent deposition of collagen type IV to the ECM” value in data set [1] (25 μM ascorbic acid) was found to be 36%; in data set [1] (100 μM ascorbic acid), 54%; in [1] (400 μM ascorbic acid) it was 43%. Moreover, the “effect on intracellular ascorbate levels” value in data set [4] is reported as “no significant effect”. Besides, the “decrease of intracellular ascorbate” value in [4] (50 μM nifedipine, 100 μM ascorbic acid, 90 min) turned out to be 61.5%. In data set [4] (50 μM nifedipine, 400 μM ascorbic acid, 90 min), the “reduction of ascorbate intracellular content” value is listed as 67.7%. The “reduction of ascorbyl palmitate dependent deposition of collagen type 1 to the ECM” value in data set [2] (1.25 μM ascorbyl palmitate) is 25%; in data set [2] (2.5 μM ascorbyl palmitate), 38%; in data set [2] (5 μM ascorbyl palmitate), 27.5%; in data set [2] (10 μM ascorbyl palmitate), 11%; in data set [2] (20 μM ascorbyl palmitate) it was 26.5%. Besides, the “reduction of ascorbic acid dependent deposition of collagen type 1 to the ECM” value is recorded as 62.3% in data set [2] (25 μM ascorbic acid), 41.8% in data set [2] (100 μM ascorbic acid) and 16.5% in [2] (400 μM ascorbic acid).
Take `C=C[C@H]1C[N@@]2CC[C@H]1C[C@@H]2[C@@H](O)c1ccnc2ccc(OC)cc12` [quinidine]: the “effects on ascorbic acid dependent collagen type I and type IV deposition in AoSMC” value in data set [2] (compared with nifedipine, data not shown) is given as “comparable results”.
As for `COc1ccc(CCN(C)CCCC(C#N)(c2ccc(OC)c(OC)c2)C(C)C)cc1OC` (stereo not drawn) [verapamil], the “constitutive and platelet-derived growth factor-dependent collagen deposition in the ECM” value in data set [6] is “significantly decreased”.
